Assay [1] addresses T1, Geranylgeranyl transferase (Bos taurus, UniProt P29702+Q5EAD5).
T1 construct: Geranylgeranyl transferase was purified from bovine brain; from tissue; host or cells: bovine brain
Put plainly: Geranylgeranyl transferase inhibiting activity (geranylgeranyl pyrophosphate, Ras-CVIL substrate). It counts as biochemical. To be noted: geranylgeranyl transferase purified from bovine brain, read-out: GGtase IC50. As for the experimental part:
To evaluate the selective enzyme inhibiting activity of the compound according to the present invention, inhibiting activity on geranylgeranyl transferase was measured. Geranylgeranyl transferase was purified from bovine brain with the method modified from Schber's method(Schber et al., J. Biol. Chem. 1990, 265, 14701). and substantially the same experiment as that of farnesyl transferase was performed using geranylgeranyl pyrophosphate and Ras-CVIL substrate protein under the similar condition to farnesyl transferase reaction.

The target of a further assay is T2, Ras farnesyl transferase (Homo sapiens, UniProt P49354+P49356).
T2 construct: made in house
The assay can be described thus: Ras farnesyl transferase inhibiting activity (filter-binding, tritium-farnesylpyrophosphate, Ras-CVLS substrate). The class given is biochemical. To be noted: recombinant Ras farnesyl transferase, 30 minutes at 37° C., read-out: Ftase IC50. As for the experimental part:
The enzyme reaction was performed in 50 μl of 50 mM Sodium HEPES buffer solution containing 25 mmol of potassium chloride. 25 mmol of magnesium chloride, 10 mmol of DTT and 50 μmol of zinc chloride. 1.5 μmol of Ras substrate protein, 0.15 μmol of tritium-farnesylpyrophosphate and 4.5 nmol of farnesyl transferase were used.
More specifically, in the initial step, farnesyl transferase was added to the above buffer solution, reaction was maintained for 30 minutes at 37° C. and then the reaction was stopped by adding 1 ml of ethanol solution containing 1M HCl. The formed precipitates were adsorbed to GF/B filter using Hopper harvestor(Hopper #225V) for filter-binding, washed with ethanol, and then radioactivity of the dried filter was measured using LKB β counter. Enzyme titer was measured in the unsaturated state of substrate where the concentrations of Ras substrate protein and farnesyl transferase have quantitative relationship. Enzyme inhibiting activity was measured using less than 5% of total reaction solution of the compound according to the present invention dissolved in dimethylsulfoxide(DMSO) solution as a reagent. Enzyme inhibiting activity was represented by percentage of the amount of the farnesyl incorporated with the reagent to that without the reagent.

Assay [2] relates to intracellular Ras farnesyl transferase, Rat2 cell line. The assay can be described thus: Intracellular Ras farnesyl transferase inhibiting activity in transformed Rat2 cells (35S-methionine labelling, Y13-259 immunoprecipitation, SDS-PAGE). The following applies: Rattus norvegicus; transformed Rat2 fibroblast cell line; concentration inhibiting 50% of farnesyl binding of Ras protein; read-out: Ftase CIC50. It counts as cell-based. As for the experimental part:
In the present experiment, Rat2 cell line which expresses C-Harvey-Ras protein having transforming activity and Rat2 cell line(Korean patent application No. 97-14409) which is transformed with fused protein of H-Ras substituted with polybasic lysine domain at C-terminus of K-Ras were used. The experiment was performed by the modified Declue's method(Declue. J. E. et al., Cancer Research, 1991. 51, 712). Hereinafter, the experimental method will be described in more detail.
3×10^5 cells of transformed Rat2 fibroblast cell line were sprayed on 60 mm cell cultivation dish and cultivated for 48 hours in a cell incubator at 37° C. and after 50% or more of density was reached, it was treated with a reagent. The compound according to the present invention dissolved in dimethylsulfoxide(DMSO) was used as the reagent. 1% of dimethylsulfoxide was used in both control and experimental groups. After 4 hours from the treatment of the reagent, methionine labeled with 150 μCi of radioactive isotope, ^35S per 1 ml of medium, was added and after cultivating for 20 hours, the cells were washed with physiological saline water. The cells were lysed using 1 ml of cool cell lysis buffer solution(50 mM of Sodium Herpiss buffer solution containing 5 mmol of magnesium chloride. 1 mmol of DTT, 1% NP 40, 1 mmol of EDTA, 1 mmol of PMSF, 2 μmol of leupeptin, 2 μmol of pepstatin A and 2 μmol of antipain) and the supernatant was obtained by high-velocity centrifugation of 12,000 g×5 minutes. The amount of the labeled radioisotope of the supernatent was measured and standardized to obtain a quantitative result in immunoprecipitation reaction and then. Y13-259, monoclonal antiboby specifically binding to Ras protein(Furth, M. E. et al., J. Virol, 1982, 43, 294) was added and reacted for 15 hours at 4° C. Protein A bound to goat anti-murine Immunoglobulin antibody-agarose suspension was added to the solution and reacted for 1 hour at 4° C. and then, to remove unspecific binding product, immunoprecipitates were washed with buffer solution(50 mM Tris chloride buffer solution containing 50 mmol of sodium chloride, 0.5% of sodium dioxycolate, 0.5% of NP 40 and 0.1% of SDS). The precipitates were boiled in reagent buffer solution for electrophoresis and then, electrophoresis was performed using 13.5% of SDS polyacrylamide gel. After electrophoresis, the gel was fixed and dried. Then, the gel was exposed to X-ray film, developed and printed. From the result of the experiment, intensities of band of protein with and without farnesyl of Ras protein were measured, and the concentration of reagent inhibiting 50% of farnesyl binding was defined as CIC50, an intracellular Ras farnesyl transferase inhibiting activity.

On to `CC1(c2cccc3ccccc23)C(=O)N(CCCn2ccnc2)C(=O)N1Cc1ccc(S(C)(=O)=O)cc1` (stereo not drawn) [Compound 28, 3-(3-imidazol-1-yl-propyl)-1-(4-methylsulfonyl-benzyl)-5-methyl-5-naphthalen-1-yl-imidazolidin-2,4-dione], for which the IC50 is over 10 µM in assay [1], 1.1 µM at Ras farnesyl transferase and under 20 µM in assay [2].

With `CSc1ccc(CN2C(=O)N(CCCn3ccnc3)C(=O)C2(C)c2cccc3ccccc23)cc1C#N` (stereo not drawn) [Compound 29, 5-[3-(3-imidazol-1-yl-propyl)-5-methyl-5-naphthalen-1-yl-2,4-dioxo-imidazolidin-1-ylmethyl]-2-methylsulfanyl-benzonitrile], the IC50 in assay [1] is over 10 µM; on Ras farnesyl transferase it was 0.08 µM; in assay [2], under 20 µM.

As to `CC1(c2cccc3ccccc23)C(=O)N(CCCn2ccnc2)C(=O)N1Cc1ccc(S(C)(=O)=O)c(C#N)c1` (stereo not drawn) [Compound 30, 5-[3-(3-imidazol-1-yl-propyl)-5-methyl-5-naphthalen-1-yl-2,4-dioxo-imidazolidin-1-ylmethyl]-2-methylsulfonyl-benzonitrile], the figures for the IC50 (in assay [1]; on Ras farnesyl transferase; in assay [2]) were over 10 µM, 0.725 µM and under 20 µM, respectively.

`CC1(c2cccc3ccccc23)C(=O)N(CCCn2ccnc2)C(=O)N1Cc1ccccc1C#N` (stereo not drawn) [Compound 31, 2-[3-(3-imidazol-1-yl-propyl)-5-methyl-5-naphthalen-1-yl-2,4-dioxo-imidazolidin-1-ylmethyl]-benzonitrile]: the IC50 is over 10 µM in assay [1], 0.9 µM at Ras farnesyl transferase and under 20 µM in assay [2].

In the case of `CC1(c2cccc3ccccc23)C(=O)N(CCCn2ccnc2)C(=O)N1Cc1cccc(C#N)c1` (stereo not drawn) [Compound 32, 3-[3-(3-imidazol-1-yl-propyl)-5-methyl-5naphthalen-1-yl-2,4-dioxo-imidazolidin-1-ylmethyl]-benzonitrile], the IC50 in assay [1] was over 10 µM; on Ras farnesyl transferase it was 0.092 µM; in assay [2], under 20 µM.

On to `CC1(c2cccc3ccccc23)C(=O)N(CCCn2ccnc2)C(=O)N1Cc1ccc(C#N)cc1` (stereo not drawn) [Compound 33, 4-[3-(3-imidazol-1-yl-propyl)-5-methyl-5-naphthalen-1-yl-2,4-dioxo-imidazolidin-1-ylmethyl]-benzonitrile], for which the IC50 in assay [1] is over 10 µM; on Ras farnesyl transferase, 1.3 µM; in assay [2], under 20 µM.

In the case of `CC1(c2cccc3ccccc23)C(=O)N(CCCn2ccnc2)C(=O)N1Cc1ccc(CN)cc1` (stereo not drawn) [Compound 34, 1-(4-aminomethyl-benzyl)-3-(3-imidazol-1-yl-propyl)-5-methyl-5-naphthalen-1-yl-imidazolidin-2,4-dione], the IC50 was over 10 µM in assay [1], 2.1 µM at Ras farnesyl transferase and under 20 µM in assay [2].

Consider `CC1(c2cccc3ccccc23)C(=O)N(CCCn2ccnc2)C(=O)N1Cc1ccccc1CNS(C)(=O)=O` (stereo not drawn) [Compound 35, N-{2-[3-(3-imidazol-1-yl-propyl)-5-methyl-5-naphthalen-1-yl-2,4-dioxo-imidazolidin-1-ylmethyl]-benzyl}-methanesulfonamide], for which the IC50 in assay [1] is over 10 µM; at Ras farnesyl transferase it was 0.5 µM; in assay [2] it was under 20 µM.

`CC1(c2cccc3ccccc23)C(=O)N(CCCn2ccnc2)C(=O)N1Cc1cccc(CNS(C)(=O)=O)c1` (stereo not drawn) [Compound 36, N-{3-[3-(3-imidazol-1-yl-propyl)-5-methyl-5-naphthalen-1-yl-2,4-dioxo-imidazolidin-1-ylmethyl]-benzyl}-methanesulfonamide]: the IC50 in assay [1] was over 10 µM; at Ras farnesyl transferase, 1.2 µM; in assay [2] it was under 20 µM.

Turning to `CC1(c2cccc3ccccc23)C(=O)N(CCCn2ccnc2)C(=O)N1Cc1ccc(CNS(C)(=O)=O)cc1` (stereo not drawn) [Compound 37, N-{4-[3-(3-imidazol-1-yl-propyl)-5-methyl-5-naphthalen-1-yl-2,4-dioxo-imidazolidin-1-ylmethyl]-benzyl}-methanesulfonamide], the IC50 in assay [1] was over 10 µM; on Ras farnesyl transferase it was 0.35 µM; in assay [2], under 20 µM.

For `COC(=O)c1ccc(CN2C(=O)N(CCCn3ccnc3)C(=O)C2(C)c2cccc3ccccc23)cc1` (stereo not drawn) [Compound 38, 4-[3-(3-imidazol-1-yl-propyl)-5-methyl-5-naphthalen-1-yl-2,4-dioxo-imidazolidin-1-ylmethyl]-benzoic acid methyl ester], the IC50 is over 10 µM in assay [1], 0.25 µM on Ras farnesyl transferase and under 20 µM in assay [2].

For the molecule `CC1(c2cccc3ccccc23)C(=O)N(CCCn2ccnc2)C(=O)N1Cc1ccc(C(=O)O)cc1` (stereo not drawn) [Compound 39, 4-[3-(3-imidazol-1-yl-propyl)-5-methyl-5-naphthalen-1-yl-2,4-dioxo-imidazolidin-1-ylmethyl]-benzoic acid], the IC50 in assay [1] was over 10 µM; on Ras farnesyl transferase it was 0.2 µM; in assay [2], under 20 µM.

For `CC1(c2cccc3ccccc23)C(=O)N(CCCn2ccnc2)C(=O)N1Cc1ccc(C(=O)N2CCOCC2)cc1` (stereo not drawn) [Compound 40], the IC50 is over 10 µM in assay [1], 1.4 µM on Ras farnesyl transferase and under 20 µM in assay [2].

For `COCCNC(=O)c1ccc(CN2C(=O)N(CCCn3ccnc3)C(=O)C2(C)c2cccc3ccccc23)cc1` (stereo not drawn) [Compound 41, 4-[3-(3-imidazol-1-yl-propyl)-5-methyl-5-naphthalen-1-yl-2,4-dioxo-imidazolidin-1-ylmethyl]-N-(2-methoxy-ethyl)-benzamide], the figures for the IC50 (in assay [1]; at Ras farnesyl transferase; in assay [2]) were over 10 µM, 0.53 µM and under 20 µM, respectively.

`COCCN(C)C(=O)c1ccc(CN2C(=O)N(CCCn3ccnc3)C(=O)C2(C)c2cccc3ccccc23)cc1` (stereo not drawn) [Compound 42, 4[3-(3-imidazol-1-yl-propyl)-5-methyl-5-naphthalen-1-yl-2,4-dioxo-imidazolidin-1-ylmethyl]-N-(2-methoxy-ethyl)-N-methyl-benzamide]: the IC50 in assay [1] was over 10 µM; at Ras farnesyl transferase it was 1 µM; in assay [2] it was under 20 µM.

In the case of `CC1(c2cccc3ccccc23)C(=O)N(CCCn2ccnc2)C(=O)N1Cc1ccc(C(=O)N2CCN(C(=O)OCc3ccccc3)CC2)cc1` (stereo not drawn) [Compound 43, 4-{4-[3-(3-imidazol-1-yl-propyl)-5-methyl-5-naphthalen-1-yl-2,4-dioxo-imidazolidin-1-ylmethyl]-benzoyl}-piperazine-1-carboxylic acid benzyl ester], the IC50 is over 10 µM in assay [1], 5 µM at Ras farnesyl transferase and under 20 µM in assay [2].

Turning to `CC1(c2cccc3ccccc23)C(=O)N(CCCn2ccnc2)C(=O)N1Cc1cccc(C(=O)N2CCSCC2)c1` (stereo not drawn) [Compound 44, 3-(3-imidazol-1-yl-propyl)-1-[3-(thiomorpholine-4-carbonyl)-benzyl]-5-methyl-5-naphthalen-1-yl-imidazolidin-2,4-dione], the IC50 was over 10 µM in assay [1], 8 µM on Ras farnesyl transferase and under 20 µM in assay [2].

These data come from patent publication US6384061B1, “Hydantoin compounds and methods related thereto” (LG Chemical Ltd., priority 2000, dated 2002).
